Test results: US20050222040A1, “Vertebrate peptide modulators of lipid metabolism” (BLM Group, Inc., priority 2004, published 2005)
Non-standard residues stand in square brackets, D forms with d. No end group written: not given here. pGlu = O=C1CC[C@@H](C(=O)O)N1

Tested on: human adipocytes
Test: Glycerol release assay (lipolysis) in differentiated human adipocytes
Assay type: cell-based
Conditions: for Percent Glycerol Release over Background / glycerol releasing activity (result in words): human adipocytes in vitro; for lipid mobilization activity of insect AKH/HTP peptides and alanine walk analogs (result in words): Example 2, Table 8 peptides; for glycerol releasing activity (result in words): 100 nanomolar, 1 micromolar and 10 micromolar
Procedure: Two assay methods, giving equivalent results, can be used. The results disclosed in Example 2, below, were obtained using an in vitro assay based on measurement of glycerol released into the medium. An alternative assay system, based on the release of radioisotope from adipocytes incubated overnight with 9,10 ^3H-palmitate, can also be used.
Human subcutaneous preadipocytes, obtained by liposuction (Zen-Bio, Inc. Research Triangle Park, N.C.), are cultured for 3 weeks in 96-well plates in Differentiation medium (DMEM/Hams F10 [1/1, v/v], 15 mM Hepes buffer, 3% FBS, Penicillin/Streptomycin, 33 uM Biotin 17 uM Pantothenate, 100 nM human insulin, 0.5 uM Dexamethasone, 0.2 mM IBMX, and 10 uM thiazolidinedione.
The assay based on glycerol release is performed by removing the culture medium from differentiated cells, treating the cells with 0.1 ml of the test compounds at the appropriate doses in adipocyte medium (DMEM/Hank's F-10, 15 mM HEPES buffer, 3% FBS, penicillin/streptomycin) followed by incubation at 37 degrees Celsius for 2-5 hours. Isoproterenol is used as positive control and all assays are done in triplicate. At the end of the time points, 0.1 ml of the conditioned media from each well is transferred to a well of a new plate. Glycerol is quantified using standard enzymatic methods, with absorption by oxidized quinoneimine at 540 nm. Briefly, lipolytic activity can be assayed simply by the measurement of glycerol released into the medium since glycerokinase activity is not present in adipocytes (Carpene, C., Methods in Molecular Biology 155: Adipose Tissue Protocols, 1999). Glycerol released to the medium is phosphorylated by adenosine triphosphate (ATP) forming glycerol-1-phosphate (G-1-P) and adenosine-5′-diphosphate (ADP) in the reaction catalyzed by glycerol kinase. G-1-P is then oxidized by glycerol phosphate oxidase to dihydroxyacetone phosphate (DAP) and hydrogen peroxide (H2O2). […] The increase in absorbance at 540 nm is directly proportional to glycerol concentration of the sample.

[1] = peptide concentration 1 micro M
[2] = peptide concentration 10 micro M

In the case of `CC(C)NCC(O)c1ccc(O)c(O)c1` (stereo not shown) [Iso, Isoproterenol, reference compound], the “Percent Glycerol Release over Background” value (peptide concentration 100 nM) is reported as 213%, the “Percent Glycerol Release over Background” value [1] is reported as 262% and the “Percent Glycerol Release over Background” value [2] is reported as 206%.

With QLNFTASW [Peptide 53] the “Percent Glycerol Release over Background” value (peptide concentration 100 nM) was 3.8%, the “Percent Glycerol Release over Background” value [1] was 36.8% and the “Percent Glycerol Release over Background” value [2] was 18.9%.

QLNFTASW-NH2 [Peptide 54] was tested, and the “Percent Glycerol Release over Background” value (peptide concentration 100 nM) was 2.8%, the “Percent Glycerol Release over Background” value [1] was 4.7% and the “Percent Glycerol Release over Background” value [2] was 8.5%.

For QLNFTASWG [Peptide 52], the “Percent Glycerol Release over Background” value (peptide concentration 100 nM) was 0.9%, the “Percent Glycerol Release over Background” value [1] was 13.2% and the “Percent Glycerol Release over Background” value [2] was 17%.

For QLNFTASWG-NH2 [Peptide 72], the “Percent Glycerol Release over Background” value (peptide concentration 100 nM) was 18%, the “Percent Glycerol Release over Background” value [1] was 11.3% and the “Percent Glycerol Release over Background” value [2] was 18.9%.

With “pGlu-Leu-Asn-Phe-Ser-Thr-Gly-TrpNH2 ([pGlu]LNFSTGW-NH2; SMILES CC(C)C[C@H](NC(=O)[C@@H]1CCC(=O)N1)C(=O)N[C@@H](CC(N)=O)C(=O)N[C@@H](Cc1ccccc1)C(=O)N[C@@H](CO)C(=O)N[C@H](C(=O)NCC(=O)N[C@@H](Cc1c[nH]c2ccccc12)C(N)=O)[C@@H](C)O; listed as Schistocerca gregaria) [SEQ ID NO: 17, reference compound]” the “lipid mobilization activity of insect AKH/HTP peptides and alanine walk analogs (result in words)” value was “active”.

In the case of “pGlu-Leu-Asn-Phe-Thr-Ala-Ser-Trp ([pGlu]LNFTASW; listed as Homo sapiens) [Peptide 60]”, the “glycerol releasing activity (result in words)” value (shortened to “glycerol releasing activity”) is reported as “no measurable activity”.

With “pGlu-Leu-Asn-Phe-Thr-Ala-Ser-Trp-Gly ([pGlu]LNFTASWG; listed as Homo sapiens) [Peptide 51]” the “Percent Glycerol Release over Background” value (peptide concentration 100 nM) was 3.8%, the “Percent Glycerol Release over Background” value [1] was 24.5% and the “Percent Glycerol Release over Background” value [2] was 34.9%.

With “pGlu-Leu-Asn-Phe-Thr-Ala-Ser-Trp-GlyNH2 ([pGlu]LNFTASWG-NH2; SMILES CC(C)C[C@H](NC(=O)[C@@H]1CCC(=O)N1)C(=O)N[C@@H](CC(N)=O)C(=O)N[C@@H](Cc1ccccc1)C(=O)N[C@H](C(=O)N[C@@H](C)C(=O)N[C@@H](CO)C(=O)N[C@@H](Cc1c[nH]c2ccccc12)C(=O)NCC(N)=O)[C@@H](C)O; listed as Homo sapiens) [Peptide 73]” the “glycerol releasing activity” value was “low activity”, the “Percent Glycerol Release over Background” value (peptide concentration 100 nM) was 0% and the “Percent Glycerol Release over Background” value [1] was 0.9%. The “Percent Glycerol Release over Background” value [2] was 3.8%.

In the case of “pGlu-Leu-Asn-Phe-Thr-Ala-Ser-TrpNH2 ([pGlu]LNFTASW-NH2; SMILES CC(C)C[C@H](NC(=O)[C@@H]1CCC(=O)N1)C(=O)N[C@@H](CC(N)=O)C(=O)N[C@@H](Cc1ccccc1)C(=O)N[C@H](C(=O)N[C@@H](C)C(=O)N[C@@H](CO)C(=O)N[C@@H](Cc1c[nH]c2ccccc12)C(N)=O)[C@@H](C)O; listed as Homo sapiens) [Peptide 55]”, the “glycerol releasing activity” value is reported as “low activity”, the “Percent Glycerol Release over Background” value (peptide concentration 100 nM) is reported as 1.9% and the “Percent Glycerol Release over Background” value [1] is reported as 5.7%. The “Percent Glycerol Release over Background” value [2] was 13.2%.

For “pGlu-Leu-Asn-Phe-Thr-Pro-Asn-Trp-Gly-ThrNH2 ([pGlu]LNFTPNWGT-NH2; SMILES CC(C)C[C@H](NC(=O)[C@@H]1CCC(=O)N1)C(=O)N[C@@H](CC(N)=O)C(=O)N[C@@H](Cc1ccccc1)C(=O)N[C@H](C(=O)N1CCC[C@H]1C(=O)N[C@@H](CC(N)=O)C(=O)N[C@@H](Cc1c[nH]c2ccccc12)C(=O)NCC(=O)N[C@H](C(N)=O)[C@@H](C)O)[C@@H](C)O; listed as Locusta migratoria) [SEQ ID NO: 18, reference compound]”, the “lipid mobilization activity of insect AKH/HTP peptides and alanine walk analogs (result in words)” value was “active”.

With “pGlu-Leu-Thr-Phe-Thr-Ser-Ser-Trp-GlyNH2 ([pGlu]LTFTSSWG-NH2; SMILES CC(C)C[C@H](NC(=O)[C@@H]1CCC(=O)N1)C(=O)N[C@H](C(=O)N[C@@H](Cc1ccccc1)C(=O)N[C@H](C(=O)N[C@@H](CO)C(=O)N[C@@H](CO)C(=O)N[C@@H](Cc1c[nH]c2ccccc12)C(=O)NCC(N)=O)[C@@H](C)O)[C@@H](C)O; listed as Manduca sexta) [SEQ ID NO: 23, reference compound]” the “lipid mobilization activity of insect AKH/HTP peptides and alanine walk analogs (result in words)” value was “active”.

With “pGlu-Val-Asn-Phe-Ser-Pro-Gly-Trp-Gly-ThrNH2 ([pGlu]VNFSPGWGT-NH2; SMILES CC(C)[C@H](NC(=O)[C@@H]1CCC(=O)N1)C(=O)N[C@@H](CC(N)=O)C(=O)N[C@@H](Cc1ccccc1)C(=O)N[C@@H](CO)C(=O)N1CCC[C@H]1C(=O)NCC(=O)N[C@@H](Cc1c[nH]c2ccccc12)C(=O)NCC(=O)N[C@H](C(N)=O)[C@@H](C)O; listed as Blaberus discoidalis) [SEQ ID NO: 19, reference compound]” the “lipid mobilization activity of insect AKH/HTP peptides and alanine walk analogs (result in words)” value was “active”.
